Measurements: patent US9546151B2, “VMAT inhibitory compounds” (Oregon Health & Science University, priority 2014, dated 2017)
Where a name gives a salt, the structure may show the parent alone.

Molecular target: T1, VMAT2 (Homo sapiens, UniProt Q05940)
Test: hVMAT2 5HT Uptake
Format: biochemical
Set-up: expressed in transfected cells; host or cells: HEK (human embryonic kidney) cells
Conditions: not given
Description: (§1) Membrane preparation for binding, uptake and release assays using HEK-hVMAT2 cells: Human embryonic kidney cells expressing the human vesicular monoamine transporter 2 (HEK-hVMAT2) were used. HEK-hVMAT2 cells were grown until confluent. The media was removed from plates, solution A [sucrose (0.32 M) with protease inhibitors] was added to the plate, and cells were scraped from plate. Cells were homogenized with 12 strokes of a glass/glass homogenizer. The homogenate was centrifuged at 800×g for 10 min. The supernatant was removed and saved, and the pellet was resuspended, homogenized and centrifuged as above. The supernatants were combined and centrifuged at 10,000×g for 20 min. The pellet was resuspended in solution A (0.75 ml). The membranes were osmotically shocked by addition of 2.625 ml ice cold water and homogenized by 5 strokes of a glass/Teflon homogenizer. The osmolarity was reestablished with addition of Tris (338 μl, 0.25M, pH 7.4 at 4° C.), sodium potassium tartrate (338 μl, 1.0 M), and MgSO4 (4 μl, 0.9M). The homogenate was centrifuged at 20,000×g for 20 min.

T1 sequence (Q05940 whole entry): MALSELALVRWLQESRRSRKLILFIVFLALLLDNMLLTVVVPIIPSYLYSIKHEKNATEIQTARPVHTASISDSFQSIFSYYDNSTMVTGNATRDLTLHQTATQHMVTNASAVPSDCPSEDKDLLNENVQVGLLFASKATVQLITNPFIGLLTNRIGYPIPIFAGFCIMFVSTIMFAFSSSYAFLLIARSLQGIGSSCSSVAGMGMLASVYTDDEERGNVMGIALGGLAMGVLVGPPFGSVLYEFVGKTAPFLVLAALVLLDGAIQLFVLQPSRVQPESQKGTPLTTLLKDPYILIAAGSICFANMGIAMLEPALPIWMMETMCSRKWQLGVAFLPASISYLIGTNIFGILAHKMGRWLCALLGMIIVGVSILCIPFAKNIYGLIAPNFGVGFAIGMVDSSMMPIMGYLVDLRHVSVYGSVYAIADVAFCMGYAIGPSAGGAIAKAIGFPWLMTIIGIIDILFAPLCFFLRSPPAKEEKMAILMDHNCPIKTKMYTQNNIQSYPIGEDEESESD

| Compound | IC50 |
| --- | --- |
| CCOC(=O)[C@H]1CN(CCn2c(=O)[nH]c3ccccc3c2=O)CC[C@H]1c1ccc(C)s1 [A1=CH3] | 312 ± 18 nM |

Same assay, conditions: [^3H]5HT uptake, HEK-hVMAT2 preparation; read-out: hVMAT2 5HT Uptake IC50 (nM) ± SEM

| Compound | IC50 |
| --- | --- |
| CCOC(=O)[C@H]1CN(CCn2c(=O)[nH]c3ccccc3c2=O)CC[C@H]1c1ccc(C(C)C)cc1 (racemic) [Compound 5u, (±)-syn-Ethyl 1-(2-(2,4-dioxo-1,2-dihydroquinazolin-3(4H),-yl)ethyl)-4-(4-isopropylphenyl) piperidine-3-carboxylate] | 684 ± 249 nM |
| CCOC(=O)[C@H]1CN(CCn2c(=O)[nH]c3ccccc3c2=O)CC[C@H]1c1cccc(C)c1 (racemic) [Compound 5y, (±)-syn-Ethyl 1-(2-(2,4-dioxo-1,2-dihydroquinazolin-3(4H),-yl)ethyl)-4-(m-tolyl)piperidine-3-carboxylate] | 53 ± 10 nM |
| CCOC(=O)[C@H]1CN(CCn2c(=O)[nH]c3ccccc3c2=O)CC[C@H]1c1ccccc1C (racemic) [Compound 5z, (±)-syn-Ethyl 1-(2-(2,4-dioxo-1,2-dihydroquinazolin-3(4H),-yl)ethyl)-4-(o-tolyl)piperidine-3-carboxylate] | 31 ± 3 nM |
| O=C(c1ccc(F)cc1)C1CCN(CCn2c(=O)[nH]c3ccccc3c2=O)CC1 [R1=H, R2=H] | 142 ± 23 nM |

System: not given
Test: not given
Conditions: not given

| Compound | melting point |
| --- | --- |
| CCOC(=O)C1=C(c2ccc(F)cc2)CCN(CCn2c(=O)[nH]c3ccccc3c2=O)C1 | 150 to 152 °C |
| O=c1[nH]c2ccccc2c(=O)n1CCN1CC=C(c2ccc(F)cc2)CC1 | 208 °C |
| CCOC(=O)C1=C(c2ccccc2C(F)(F)F)CCN(CCn2c(=O)[nH]c3ccccc3c2=O)C1 (as salt: HCl) [Compound 5hh, Ethyl 1-(2-(2,4-dioxo-1,2-dihydroquinazolin-3(4H)-yl)ethyl)-4-(2-(trifluoromethyl)phenyl)-1,2,5,6-tetrahydropyridine-3-carboxylate] | 153.5 to 154.5 °C |
| CCOC(=O)[C@H]1CN(CCn2c(=O)[nH]c3ccccc3c2=O)CC[C@H]1c1cccc(N(C)C)c1 (racemic) (as salt: HCl) [Compound 5aa, (±)-syn-Ethyl 4-(3-(dimethylamino)phenyl)-1-(2-(2,4-dioxo-1,2-dihydroquinazolin-3(4H),-yl)ethyl) piperidine-3-carboxylate] | 179 to 180 °C |
| CCOC(=O)[C@H]1CN(CCn2c(=O)[nH]c3ccccc3c2=O)CC[C@H]1c1ccccc1N(C)C (racemic) (as salt: HCl) [Compound 5bb, (±)-syn-Ethyl 4-(2-(dimethylamino)phenyl)-1-(2-(2,4-dioxo-1,2-dihydroquinazolin-3(4H),-yl)ethyl) piperidine-3-carboxylate] | 208 to 209 °C |
| CCOC(=O)[C@H]1CN(CCn2c(=O)[nH]c3ccccc3c2=O)CC[C@H]1c1ccc(OC)c(OC)c1 (racemic) (as salt: HCl) [Compound 5dd, (±)-syn-Ethyl 4-(3,4-dimethoxyphenyl)-1-(2-(2,4-dioxo-1,2-dihydroquinazolin-3(4H),-yl)ethyl) piperidine-3-carboxylate] | 154.5 to 155.5 °C |
| CCOC(=O)[C@H]1CN(CCn2c(=O)[nH]c3ccccc3c2=O)CC[C@H]1c1ccc(O)c(O)c1 (racemic) (as salt: HCl) [Compound 5ff, (±)-syn-Ethyl 4-(3,4-dihydroxyphenyl)-1-(2-(2,4-dioxo-1,2-dihydroquinazolin-3(4H)-yl)ethyl)piperidine-3-carboxylate] | 167 to 168.5 °C |
| CCOC(=O)[C@H]1CN(CCn2c(=O)[nH]c3ccccc3c2=O)CC[C@H]1c1ccc2c(c1)OCCO2 (racemic) (as salt: HCl) [Compound 5gg, (±)-syn-Ethyl 4-(2,3-dihydrobenzo[b][1,4]dioxin-6-yl)-1-(2-(2,4-dioxo-1,2-dihydroquinazolin-3(4H)-yl)ethyl)piperidine-3-carboxylate] | 178 to 179 °C |
| CCOC(=O)[C@H]1CN(CCn2c(=O)[nH]c3ccccc3c2=O)CC[C@H]1c1ccc(OC(F)(F)F)cc1 (racemic) (as salt: HCl) [Compound 5ii, (±)-syn-ethyl 1-(2-(2,4-dioxo-1,2-dihydroquinazolin-3(4H)-yl)ethyl)-4-(4-(trifluoromethoxy)phenyl)piperidine-3-carboxylate] | 150 to 151.5 °C |
| CCOC(=O)[C@H]1CN(CCn2c(=O)[nH]c3ccccc3c2=O)CC[C@H]1c1cccc(OC(F)(F)F)c1 (racemic) (as salt: HCl) [Compound 5jj, (±)-syn-Ethyl 1-(2-(2,4-dioxo-1,2-dihydroquinazolin-3(4H)-yl)ethyl)-4-(3-(trifluoromethoxy)phenyl)piperidine-3-carboxylate] | 155 to 156 °C |
| CCOC(=O)[C@H]1CN(CCn2c(=O)[nH]c3ccccc3c2=O)CC[C@H]1c1ccc(OC)cc1 (racemic) (as salt: HCl) [Compound 5r, (±)-syn-Ethyl 1-(2-(2,4-dioxo-1,2-dihydroquinazolin-3(4H),-yl)ethyl)-4-(4-methoxyphenyl) piperidine-3-carboxylate] | 153 to 154 °C |
| CCOC(=O)[C@H]1CN(CCn2c(=O)[nH]c3ccccc3c2=O)CC[C@H]1c1ccc(CC)cc1 (racemic) (as salt: HCl) [Compound 5t, (±)-syn-Ethyl 1-(2-(2,4-dioxo-1,2-dihydroquinazolin-3(4H),-yl)ethyl)-4-(4-ethylphenyl) piperidine-3-carboxylate] | 145 to 146 °C |
| CCOC(=O)[C@H]1CN(CCn2c(=O)[nH]c3ccccc3c2=O)CC[C@H]1c1ccc(C(C)C)cc1 (racemic) (as salt: HCl) [Compound 5u, (±)-syn-Ethyl 1-(2-(2,4-dioxo-1,2-dihydroquinazolin-3(4H),-yl)ethyl)-4-(4-isopropylphenyl) piperidine-3-carboxylate] | 153 to 154 °C |
| CCOC(=O)[C@H]1CN(CCn2c(=O)[nH]c3ccccc3c2=O)CC[C@H]1CCc1ccccc1 (racemic) (as salt: HCl) [Compound 5v, (±)-syn-Ethyl 1-(2-(2,4-dioxo-1,2-dihydroquinazolin-3(4H)-yl)ethyl)-4-phenethylpiperidine-3-carboxylate] | 140 to 141 °C |
| CCOC(=O)[C@H]1CN(CCn2c(=O)[nH]c3ccccc3c2=O)CC[C@H]1c1cccc(C)c1 (racemic) (as salt: HCl) [Compound 5y, (±)-syn-Ethyl 1-(2-(2,4-dioxo-1,2-dihydroquinazolin-3(4H),-yl)ethyl)-4-(m-tolyl)piperidine-3-carboxylate] | 148.5 to 150 °C |
| CCOC(=O)[C@H]1CN(CCn2c(=O)[nH]c3ccccc3c2=O)CC[C@H]1c1ccccc1C (racemic) (as salt: HCl) [Compound 5z, (±)-syn-Ethyl 1-(2-(2,4-dioxo-1,2-dihydroquinazolin-3(4H),-yl)ethyl)-4-(o-tolyl)piperidine-3-carboxylate] | 174 to 175 °C |
| COC(=O)[C@H]1CN(CCn2c(=O)[nH]c3ccccc3c2=O)CC[C@H]1c1ccc(F)cc1 (racemic) (as salt: HCl) [Compound 10a, (±)-syn-Methyl 1-(2-(2,4-dioxo-1,2-dihydroquinazolin-3(4H),-yl)ethyl)-4-(4-fluorophenyl) piperidine-3-carboxylate] | 191.5 to 193 °C |
| CC(C)OC(=O)[C@H]1CN(CCn2c(=O)[nH]c3ccccc3c2=O)CC[C@H]1c1ccc(F)cc1 (racemic) (as salt: HCl) [Compound 10b, (±)-syn-Isopropyl 1-(2-(2,4-dioxo-1,2-dihydroquinazolin-3(4H),-yl)ethyl)-4-(4-fluorophenyl)piperidine-3-carboxylate] | 157.5 to 159 °C |
| CCOC(=O)[C@H]1CN(CCN2C(=O)c3ccccc3C2=O)CC[C@H]1c1ccc(F)cc1 (racemic) (as salt: HCl) [Example 144, (±)-syn-Ethyl 1-(2-(1,3-dioxoisoindolin-2-yl)ethyl)-4-(4-fluorophenyl)piperidine-3-carboxylate] | 104.5 to 105.5 °C |
| CCOC(=O)[C@@H]1CN(CCn2c(=O)c3ccccc3n(C)c2=O)CC[C@@H]1c1ccc(F)cc1 (racemic) [Compound 6a, (±) syn-ethyl 4-(4-fluorophenyl)-1-(2-(1-methyl-2,4-dioxo-1,2-dihydroquinazolin-3(4H)-yl)ethyl)piperidine-3-carboxylate] | 131.1 to 133 °C |
| CCCn1c(=O)n(CCN2CC[C@H](c3ccc(F)cc3)[C@H](C(=O)OCC)C2)c(=O)c2ccccc21 (racemic) [Compound 6b, (±) syn-ethyl 1-(2-(2,4-dioxo-1-propyl-1,2-dihydroquinazolin-3(4H)-yl)ethyl)-4-(4-fluorophenyl)piperidine-3-carboxylate] | 96.8 to 97.7 °C |

Molecular target: T1, VMAT2
Test: hVMAT2 [3H]DTBZ ([3H]DHTB) binding assay
Set-up: expressed in transfected cells; host or cells: HEK (human embryonic kidney) cells
Conditions: not given
Description: as §1
Binding was terminated by filtration over Whatman GF/C filters using a Tomtec 96-well cell harvester. Filters were washed for six seconds with ice-cold saline. Scintillation fluid was added to each square and radioactivity remaining on the filters was determined using a Wallac μ- or beta-plate reader. Specific binding was defined as the difference in binding observed in the presence and absence of Ro4-1284 (10 μM, generously supplied by Hoffman LaRoche). Three or more independent competition experiments were conducted with duplicate determinations.

| Compound | Ki |
| --- | --- |
| CCOC(=O)[C@H]1CN(CCn2c(=O)[nH]c3ccccc3c2=O)CC[C@H]1c1ccc(C)s1 [A1=CH3] | > 8 µM |

Same assay, conditions: HEK-hVMAT2 membranes; series 5 ligands tested as hydrochloride salts

| Compound | Ki |
| --- | --- |
| CCOC(=O)[C@H]1CN(CCn2c(=O)[nH]c3ccccc3c2=O)CC[C@H]1c1ccc(C(C)C)cc1 (racemic) [Compound 5u, (±)-syn-Ethyl 1-(2-(2,4-dioxo-1,2-dihydroquinazolin-3(4H),-yl)ethyl)-4-(4-isopropylphenyl) piperidine-3-carboxylate] | 1.62 ± 0.107 µM |
| CCOC(=O)[C@H]1CN(CCn2c(=O)[nH]c3ccccc3c2=O)CC[C@H]1c1cccc(C)c1 (racemic) [Compound 5y, (±)-syn-Ethyl 1-(2-(2,4-dioxo-1,2-dihydroquinazolin-3(4H),-yl)ethyl)-4-(m-tolyl)piperidine-3-carboxylate] | > 6.2 µM |
| O=C(c1ccc(F)cc1)C1CCN(CCn2c(=O)[nH]c3ccccc3c2=O)CC1 [R1=H, R2=H] | 0.119 ± 0.003 µM |

Same assay, conditions: cells printed in μM under a head in nM; HEK-hVMAT2 membranes

| Compound | Ki |
| --- | --- |
| CCOC(=O)[C@H]1CN(CCn2c(=O)[nH]c3ccccc3c2=O)CC[C@H]1c1ccccc1C (racemic) [Compound 5z, (±)-syn-Ethyl 1-(2-(2,4-dioxo-1,2-dihydroquinazolin-3(4H),-yl)ethyl)-4-(o-tolyl)piperidine-3-carboxylate] | > 5 µM |
